Source: ChEMBL document CHEMBL1862790, “Optimisation of fenarimol series for the treatment of Chagas disease”
“And” between values parts separate entries of the source, which are not always exact repeats. Equal values may be shown once.

Key:
Trypanosoma cruzi [1] = assay: microbe, parasite or virus in culture; format: functional, organism-based, Tulahuen LacZ, Clone C4
[2] = DNDI: Cytotoxicity against L-6 rat myoblasts from skeletal muscle cells; settings: L6 rat skeletal muscle myoblast cells
Trypanosoma cruzi [3] = assay: microbe, parasite or virus in culture; format: functional, Tulahuen LacZ, Clone C4
[4] = Trypanosoma cruzi, Tulahuen LacZ, Clone C4

SMILES | IC50 (Trypanosoma cruzi [1]; [4]) [µM] | IC50 ([2]; IC50) [µM] | IC90 (Trypanosoma cruzi [3]; [4]) [µM] | IC50 (Trypanosoma cruzi [1]) | IC90 (Trypanosoma cruzi [3]) | IC50 [2] [µM]
FC(F)(F)c1ccc(C(NC2CN(c3ncccn3)C2)c2cccnc2)cc1 (centres undefined) | 0.115 | > 100 | 0.756 | – | – | –
CC(C)CC(=O)NC1CCN(C(c2cnccn2)c2ccc(F)cc2F)CC1 (centres undefined) | > 1 | > 100 | > 1 | – | – | –
Fc1ccc(OC2CCN(C(c3ccc(C(F)(F)F)cc3)c3cccnc3)CC2)cc1 (centres undefined) | 0.021 | 23.8 | 0.03 | – | – | –
O=C(NC(c1ccc(C(F)(F)F)cc1)c1cnccn1)c1ccc(C(F)(F)F)cc1 (centres undefined) | 0.59 | 61.2 | > 1 | – | – | –
CON=C(c1ccc(Cl)cc1)C1(c2ccccc2C(=O)O)CC1 | > 1 | > 100 | – | – | – | –
CC(=O)NC1CCN(C(c2ccc(C(F)(F)F)cc2)c2cnccn2)CC1 (centres undefined) | 1.44 | > 100 | 3.17 | – | – | –
CON=C(Cc1ccc(Cl)cc1Cl)c1cccnc1 | 2.14 | 91.3 | 4.87 | – | – | –
Cc1cc(C(=O)N2CCN(C(c3cccnc3)c3ccc(Cl)cc3F)CC2)no1 (centres undefined) | 0.0665 | 69.7 | 0.279 | – | – | –
CC(C)CNC(=O)c1cccc(C(O)(c2ccc(Cl)cc2)c2cccnc2)c1 (centres undefined) | 0.098 | 60.5 | 0.3 | – | – | –
Clc1ccc(C(c2cncnc2)c2ccccc2Cl)cc1 (centres undefined) | 1.07 | > 100 | 80 | – | – | –
CN(C)C(=O)N1CCN(C(c2ccc(Cl)cc2)c2cccnc2)CC1 (centres undefined) | 0.12 | > 100 | 0.3 | – | – | –
CCS(=O)(=O)N1CCC(NC(c2cnccn2)c2ccc(F)cc2F)CC1 (centres undefined) | 0.62 | > 100 | > 1 | – | – | –
O=C(NC1CCCC1)N1CCN(C(c2ccc(Cl)cc2)c2cncnc2)CC1 (centres undefined) | 0.23 | > 100 | 0.62 | – | – | –
OC(c1ccc(Cl)cc1)(c1cccnc1)c1cccc(F)c1 (centres undefined) | 0.1 | – | 0.33 | – | – | –
C#CCOC(=O)[C@@H](C)Oc1ccc(Oc2ncc(Cl)cc2F)cc1 [CLODINAFOP PROPARGYL] | 67.5 | > 100 | – | – | – | –
CS(=O)(=O)N1CCN(C(c2cccnc2)c2ccc(Cl)cc2F)CC1 (centres undefined) | – | – | – | 0.085 µM and 0.0453 µM | 0.38 µM and 0.167 µM | –
CON(C)C(=O)Nc1ccc(Br)cc1 [METOBROMURON] | 71.8 | – | – | – | – | > 100
Oc1cc(Cl)ccc1Oc1ccc(Cl)cc1Cl [TRICLOSAN] | 53 | – | – | – | – | 82.2
CON=C(Cc1ccc(OC)cc1)c1ccc(OC)c(OC)c1OC | > 1 | 92.3 | – | – | – | –
CON=C(Cc1ccccc1C(=O)O)c1ccc(Cl)cc1 | > 1 | > 100 | – | – | – | –

SMILES | IC50 (Trypanosoma cruzi [1]; [4]) [µM] | IC50 ([2]; IC50) [µM] | IC90 (Trypanosoma cruzi [3]; [4]) [µM] | IC50 (Trypanosoma cruzi [1]) | IC90 (Trypanosoma cruzi [3]) | IC50 [2] [µM]
OC(c1ccccc1)(c1ccc(Cl)cc1)c1cncnc1 (centres undefined) | 0.462 | > 100 | – | – | – | –
CON=C(Cc1ccccc1)c1ccc(OC)cc1 | > 1 | > 100 | – | – | – | –
CS(=O)(=O)N1CCC(CNC(c2ccc(C(F)(F)F)cc2)c2cnccn2)CC1 (centres undefined) | – | – | – | 0.36 µM | 0.91 µM | –
OC(c1ccc(F)cc1)(c1ccc(Cl)cc1)c1cncnc1 (centres undefined) | 0.641 | > 100 | – | – | – | –
CNC1=C(c2cccc(C(F)(F)F)c2)C(=O)C(c2ccccc2)O1 (centres undefined) [FLURTAMONE] | 55.5 | – | – | – | – | 82.8
CC1(C)CC(=O)C(C(=O)c2ccc(Cl)cc2Cl)C(=O)C1 | 58.5 | 76.5 | – | – | – | –
CC(C)C(=O)N1CCN(C(c2ccc(Cl)cc2)c2cncnc2)CC1 (centres undefined) | – | – | – | 0.68 µM | > 1 µM | –
O=C(C1CC1)N1CCC(NC(c2ccc(C(F)(F)F)cc2)c2cnccn2)CC1 (centres undefined) | – | – | – | 0.64 µM | > 1 µM | –
OC(Cc1ccc(Cl)nc1)c1ccc(Cl)cc1 (centres undefined) | > 1 | > 100 | – | – | – | –
CC(Oc1ccc(Oc2nc3ccc(Cl)cc3o2)cc1)C(=O)O (centres undefined) [FENOXAPROP] | > 100 | – | – | – | – | > 100
OC(c1ccc(Cl)cc1)(c1cccnc1)c1ccc(Cl)s1 (centres undefined) | 0.077 | 50 | – | – | – | –
CC(C)c1ccc(C(O)(c2ccc(C(F)(F)F)cc2)c2cccnc2)cc1 (centres undefined) | 0.002 | – | 0.007 | – | – | –
O=C(C1CC1)N1CCC(NC(c2ccc(Cl)cc2)c2cccnc2)CC1 (centres undefined) | – | – | – | 0.11 µM | – | –
OC(c1ccc(Cl)cc1)(c1cncnc1)c1ccccc1Cl (centres undefined) [FENARIMOL] | 0.25 | – | 0.56 | – | – | –
O=[N+]([O-])c1ccc(O/N=C/c2cc(Br)c(O)c(Br)c2)c([N+](=O)[O-])c1 | 23.9 | – | – | – | – | 83.6
OC(c1cncnc1)(c1ccccc1Cl)c1ccccc1Cl | 1.06 | > 100 | – | – | – | –
CC(C)Oc1ccccc1C(O)(c1ccc(Cl)cc1)c1cccnc1 (centres undefined) | 0.446 | – | 0.82 | – | – | –
CC(Oc1ccc(Cl)cc1Cl)C(=O)O (stereo not drawn) [RAC-DICHLORPROP] | 74 | – | – | – | – | > 100
COC(c1ccc(Cl)cc1)(c1cccnc1)c1ccccc1Cl (centres undefined) | 0.09 | – | 10 | – | – | –
